Test [1] deals with NCI H1975 (Her2−) cells. Kind of test: In vitro cytotoxicity assay (CCK8 cell viability), NCI H1975 (Her2−) negative control cells. The test is classed as cell-based. As to conditions: 3 days incubation. As to the method:
(§1) The ability of various antibody-drug conjugates and naked payloads to kill antigen-expressing tumor cells in vitro was assessed.
(§2) SKBR3 (Her2+) cells were seeded in 96 well plates at 8000 cells per well in complete growth media and grown overnight. For cell viability curves, serially diluted conjugates or naked payloads were added to the cells at final concentrations ranging from 100 nM to 5 pM and incubated for 3 days. NCI H1975 (Her2−) cells were run as negative controls using similar conditions. To measure viability, cells were incubated with CCK8 (Dojindo) for the final 2 hours and the absorbance at 450 nm (OD450) was determined on a Victor (Perkin Elmer). Background OD450 levels determined from digitonin (40 nM) treated cells were subtracted from all wells and viability is expressed as a percentage of the untreated controls. IC50 values were determined from a four-parameter logistic equation over a 10-point response curve (GraphPad Prism). […] The interchain disulfide conjugates had similar IC50 values as the transglutaminase site-specific selenocystamine conjugates. […] For comparison, the mc-vc-PAB-MMAE interchain disulfide conjugated molecules were produced according to Doronina, S. O. et al., Nat. Biotechnol., 2003, 21, 778.

Test [2] relates to SKBR3 (Her2+) cells. Kind of test: In vitro cytotoxicity assay (CCK8 cell viability), SKBR3 (Her2+) cells. It is filed as cell-based. As to the method: as §1, §2

We go through 1 compound from patent US20220143194A1, “SELENIUM ANTIBODY CONJUGATES” (priority 2020, published 2022).

Non-standard residues stand in square brackets, D forms with d. Residues, ends and D or L forms follow the SMILES beside them. *: point of attachment. Dolaproine = CO[C@@H]([C@@H]1CCCN1)[C@@H](C)C(=O)O; Dil = CC[C@H](C)[C@H](NC)[C@@H](CC(=O)O)OC; X1 = C[C@@H](N*)[C@@H](O)c1ccccc1; NMeV = CN[C@H](C(=O)O)C(C)C

Regarding `CC[C@H](C)[C@@H]([C@@H](CC(=O)N1CCC[C@H]1[C@H](OC)[C@@H](C)C(=O)N[C@H](C)[C@@H](O)c1ccccc1)OC)N(C)C(=O)[C@@H](NC(=O)[C@@H](NC)C(C)C)C(C)C` [MMAE, monomethyl auristatin E] (H-[NMeV]V[Dil][Dolaproine]-X1), the “% Kill” value in test [1] (concentrations 100 nM to 5 pM) is 100%; in test [2] (SK-BR-3 cells, 3 days incubation, CCK8 viability, concentrations 100 nM to 5 pM), 93.6%. For the same compound, the IC50 (usually the point on the concentration scale where inhibition reaches its midpoint) in test [1] (Homo sapiens, 72 h, IC50 corrected for payload equivalents) is 0.405 nM; in test [2] (Homo sapiens, SK-BR-3, 72 h) it was 0.191 nM.
